US9469854B2, “Pharmaceutical composition for treating liver diseases” (Academia Sinica, priority 2014, dated 2016)

Experiments:
hsa-miR-21-3p = experiment: miRNA microarray profiling of berberine-treated primary human hepatocytes; format: cell-based; details: PHHs from 3 donors, 40 μM berberine, 2 h
Description: The primary human hepatocytes from Caucasian donors were purchased from Invitrogen and cultured following the manufacturer's instructions. The hepatocytes were thawed and transferred into cryopreserved hepatocytes recovery medium (CM7000, Invitrogen), centrifuging at room temperature, 100×g for 10 min. Then, the hepatocytes were diluted to seeding density with plating medium (CM3000, Invitrogen) and added into collagen I-coated plates (Invitrogen). These plates were incubated at 37° C. for 4-6 hours under 5% CO2 for forming a monolayer. Then, plating medium was replaced by overlay incubation medium (CM4000 and 0.35 mg/mL Geltrex™ Matrix, Invitrogen), and the incubation medium was replaced daily. In the following examples, hepatocytes form 3 to 4 donors were used for experiments.
A 50 mM stock solution of berberine chloride (Sigma-Aldrich) was prepared in dimethyl sulfoxide (DMSO). […]
Total RNA was extracted using a TRIZOL reagent (Invitrogen) according to the manufacturer's protocol. The total RNA quantity was measured using a NanoDrop ND-1000 spectrophotometer (Nanodrop Technologies). […]
The miRNA profiling was performed using an Agilent human miRNA Microarray R14 V2 containing 866 human miRNAs. […] Microarrays were scanned following the Agilent microarray scanner protocol, and image analysis and quantification were performed using the Agilent Feature Extraction software (Agilent Technologies). […]

HepG2 cells = experiment: BrdU incorporation cell proliferation assay; format: cell-based, human; details: HepG2, mimic 24 h plus additional 24 h BrdU, vs NC mimic
Description: The HepG2 cells were seeded at a density of 1×10^4 cells per well in a 96-well culture plate the day before transfection. After transfection with 50 nM of hsa-miR-21-3p mimic or the negative-control mimic for 24 h, the cultured media were refreshed with complete media containing the BrdU reagent, and incubated for an additional 24 hour for BrdU incorporation. The BrdU incorporation was quantified by using the BrdU cell proliferation colorimetric ELISA kit (abcam) according to the manufacturer's protocol and detected using the MRX II microplate reader (DYNEX).

MAT2B 3′ UTR = experiment: Dual luciferase reporter assay in HepG2 cells; format: cell-based, human
Description: (§1) Full-length 3′ UTRs of MAT2A and MAT2B were amplified from the genomic DNA of HepG2 cells through PCR.
(§2) The PCR products were then cloned into the pMIR-REPORT Luciferase miRNA Expression Reporter Vector (Invitrogen), and all inserted sequences in the 3′ UTR constructs were checked using the ABI PRISM DNA sequencer.
(§3) The mutagenesis of the target sequences of hsa-miR-21-3p in MAT2A and MAT2B 3′ UTRs was performed using the QuikChange site-directed mutagenesis kit (Agilent) according to the manufacturer's standard protocol.
(§4) All mutated sequences, including Site 1, Site 2 and the double mutation of the MAT2A and the 3′ UTR mutant construct of MAT2B, were checked through DNA sequencing.
(§5) The HEK-293T and HepG2 cells were seeded at a density of 5×10^4 cells per well in a 24-well culture plate the day before transfection. The HEK-293T and HepG2 cells were tri-transfected with (1) any one of the above-mentioned pMIR-REPORT-3′ UTR construction (300 ng), (2) the control Renilla luciferase reporter plasmid pRL-TK from Promega (10 ng), and (3) 50 nM of hsa-miR-21-3p mimic or negative-control mimic by using the Lipofectamine 2000 transfection reagent (Invitrogen) according to the manufacturer's instructions. Luciferase assays were performed after transfection for 48 h by using the Dual Luciferase reporter assay kit (Promega) and the Paradigm detection platform (Beckman) according to the manufacturer's protocol. The firefly luciferase activity was normalized relative to the Renilla luciferase activity.

MAT2A 3′ UTR = experiment: Dual luciferase reporter assay in HepG2 cells; format: cell-based, human
Description: as §1, §2, §3, §4, §5

intracellular SAM = experiment: Measurement of intracellular SAM concentration in HepG2 cells; format: cell-based, human
Description: […] The intracellular SAM of 5×10^4 HepG2 cells pellet was resuspended in […] of an extraction solution (0.2% perchloric acid plus 0.08% (v/v) 2-mercaptoethanol in ddH2O). Cells were incubated at room temperature for 1 h and vortexed every 5 min. The suspension was centrifuged at 4° C. at 10000×g for 5 min, and then the supernatant was collected. SAM levels in the supernatants were quantified using the Bridge-It SAM fluorescence assay kit (Mediomics) and detected using SpectraMax plate reader (Molecular Devices) according to the manufacturer's instructions.

NBPF8 = experiment: qRT-PCR mRNA expression in HepG2 cells; format: cell-based, human; details: HepG2, 50 nM mimic transfection, 24 hours
Description: (§6) The human HepG2 cells and HEK 293T cells used in the following examples were originally obtained from the American Tissue Culture Collection (ATCC, USA). The human HCC HepG2 cell line was cultured in Minimum Essential Medium Eagle (Sigma) supplemented with 10% fetal bovine serum (FBS) (Invitrogen), 2.2 g/L of sodium bicarbonate (Sigma), 0.1 mM of non-essential amino acids (Caisson), 1 mM of sodium pyruvate (Invitrogen), and 10 of ml/L penicillin-streptomycin-amphotericin solution (Biological Industries). Human HEK-293T cells were maintained in high-glucose Dulbecco's modified eagle medium (Invitrogen) supplemented with 10% FBS and 3.7 g/L of sodium bicarbonate (Sigma). Both cell lines were cultured at 37° C. and 5% CO2.
(§7) Total RNA was extracted using a TRIZOL reagent (Invitrogen) according to the manufacturer's protocol. The total RNA quantity was measured using a NanoDrop ND-1000 spectrophotometer (Nanodrop Technologies). The total RNA quality and integrity were assayed using an Agilent 2100 bioanalyzer with an RNA 6000 nano kit (Agilent Technologies).
(§8) Total RNAs (1 μg) were reverse-transcribed into cDNA by using M-MuLV Reverse Transcriptase (Thermo) and Oligo(dT)12-18 primers (Invitrogen) according to the manufacturer's protocol. The cDNA were then used for a real-time PCR with a LightCycler 480 SYBR Green I Master (Roche) by using primers shown in the following Table 1. The gene expression levels were normalized to GAPDH levels.
(§9) The HepG2 cells were transfected at a density of 5×10^4 cells per well in a 24-well culture plates with either 50 nM of hsa-miR-21-3p (miR-21-3p mimic) or negative-control mimic (NC mimic), or with either 100 nM of hsa-miR-21-3p inhibitor (miR-21-3p inhibitor) or negative-control inhibitor (NC inhibitor) by using the DharmaFECT 4 transfection reagent (Thermo Scientific Dharmacon) according to the manufacturer's instructions. Cells were incubated for 24 h or 48 h with a microRNA mimic or inhibitor prior to RNA purification for gene expression analysis, and were incubated for 72 h for protein expression analysis.

DIDO1 = experiment: qRT-PCR mRNA expression in HepG2 cells; format: cell-based, human; details: HepG2, 50 nM mimic transfection, 24 hours
Description: as §6, §7, §8, §9

EEF2K = experiment: qRT-PCR mRNA expression in HepG2 cells; format: cell-based, human; details: HepG2, 50 nM mimic transfection, 24 hours
Description: as §6, §7, §8, §9

[1] = HepG2, wild-type 3′ UTR, 50 nM mimic, 48 h

Row | Compound | hsa-miR-21-3p expression increase (miRNA microarray), mean (hsa-miR-21-3p) [fold] | inhibition of cellular proliferation (BrdU incorporation) (HepG2 cells) [fold] | luciferase reporter expression change, mutated MAT2B 3′ UTR (MAT2B 3′ UTR; HepG2, seed match (+399-418) mutated) | luciferase reporter expression decrease, MAT2B 3′ UTR (MAT2B 3′ UTR; [1]) [fold] | luciferase reporter expression decrease, Site 1 mutated MAT2A 3′ UTR (MAT2A 3′ UTR; HepG2, Site 1 (+180-200) mutated) [fold] | luciferase reporter expression decrease, MAT2A 3′ UTR (MAT2A 3′ UTR; [1]) [fold] | luciferase reporter expression change, Site 2 mutated MAT2A 3′ UTR (MAT2A 3′ UTR; Site 2 (+1267-1288) mutated, cells not named in sentence (FIG. 5C: HEK293T and HepG2)) | luciferase reporter expression change, double-mutated MAT2A 3′ UTR (MAT2A 3′ UTR; both Site 1 and Site 2 mutated, cells not named in sentence (FIG. 5C: HEK293T and HepG2)) | intracellular SAM contents increase (intracellular SAM; HepG2, mimic transfection 48 h vs NC mimic) [fold] | intracellular SAM contents increase (intracellular SAM; HepG2, mimic transfection 72 h vs NC mimic) [fold] | decrease in mRNA expression of NBPF8 (NBPF8) [%] | decrease in mRNA expression of DIDO1 (DIDO1) [%] | decrease in mRNA expression of EEF2K (EEF2K) [%]
1 | COc1ccc2cc3[n+](cc2c1OC)CCc1cc2c(cc1-3)OCO2 [berberine] | 3.36 |  |  |  |  |  |  |  |  |  |  |  | 
2 | hsa-miR-21-3p (CAACACCAGUCGAUGGGCUGU; listed as RNA, chemistry not given here) [miR-21-3p mimic] |  | 1.7 | remained unchanged | 1.4 | 1.5 | 1.5 | did not notably change | did not notably change | 1.6 | 3.0 | < 50 | < 50 | > 50
